According to the supplement of paper PMC10307832:

Experiments:
Experiment in all cases: relative viability (nuclei count vs DMSO), 5 days (fraction); higher = more cells survive
[1] = compound: Cc1ccc2nc(NCCN)c3ncc(C)n3c2c1 + Nc1nc2[nH]cc(CCc3ccc(C(=O)N[C@@H](CCC(=O)O)C(=O)O)cc3)c2c(=O)[nH]1 [Pemetrexed] (partner 0.2 µM)
Procedure, shortened: (§1)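 The day after seeding in 1536-well plates, lung cancer cell lines were treated by pin tool with a single drug, or with a fixed anchor-drug dose together with five library-drug doses (not always all listed) in √10 steps. After 5 days, a combined fix-and-stain solution (final 0.05% Triton X-100, 1% formaldehyde, 1 ug/ml Hoechst) was added. Nuclei counted on 4× images gave relative viability as treated counts over vehicle counts, reported as the median of duplicate plates.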

Salubrinal + Trametinib = compound: O=C(/C=C/c1ccccc1)NC(NC(=S)Nc1cccc2cccnc12)C(Cl)(Cl)Cl [Salubrinal] + CC(=O)Nc1cccc(-n2c(=O)n(C3CC3)c(=O)c3c(Nc4ccc(I)cc4F)n(C)c(=O)c(C)c32)c1 [Trametinib] (partner 0.02 µM)
Procedure, shortened: as §1

Salubrinal + Foretinib = compound: O=C(/C=C/c1ccccc1)NC(NC(=S)Nc1cccc2cccnc12)C(Cl)(Cl)Cl [Salubrinal] + COc1cc2c(Oc3ccc(NC(=O)C4(C(=O)Nc5ccc(F)cc5)CC4)cc3F)ccnc2cc1OCCCN1CCOCC1 [Foretinib] (partner 0.25 µM)
Procedure, shortened: as §1

Salubrinal + Pemetrexed = compound: O=C(/C=C/c1ccccc1)NC(NC(=S)Nc1cccc2cccnc12)C(Cl)(Cl)Cl [Salubrinal] + Nc1nc2[nH]cc(CCc3ccc(C(=O)N[C@@H](CCC(=O)O)C(=O)O)cc3)c2c(=O)[nH]1 [Pemetrexed] (partner 0.2 µM)
Procedure, shortened: as §1

Cell Line | relative viability ([1]; first compound 0.04 µM) | relative viability ([1]; first compound 0.1265 µM) | relative viability ([1]; first compound 0.4 µM) | relative viability ([1]; first compound 1.265 µM) | relative viability ([1]; first compound 4 µM) | relative viability (Salubrinal + Trametinib; first compound 0.08 µM) | relative viability (Salubrinal + Trametinib; first compound 0.253 µM) | relative viability (Salubrinal + Trametinib; first compound 0.8 µM) | relative viability (Salubrinal + Trametinib; first compound 2.53 µM) | relative viability (Salubrinal + Trametinib; first compound 8 µM) | relative viability (Salubrinal + Foretinib; first compound 0.08 µM) | relative viability (Salubrinal + Foretinib; first compound 0.253 µM) | relative viability (Salubrinal + Foretinib; first compound 0.8 µM) | relative viability (Salubrinal + Foretinib; first compound 2.53 µM) | relative viability (Salubrinal + Foretinib; first compound 8 µM) | relative viability (Salubrinal + Pemetrexed; first compound 0.08 µM) | relative viability (Salubrinal + Pemetrexed; first compound 0.253 µM) | relative viability (Salubrinal + Pemetrexed; first compound 0.8 µM) | relative viability (Salubrinal + Pemetrexed; first compound 2.53 µM) | relative viability (Salubrinal + Pemetrexed; first compound 8 µM)
NCI-H1651 | 0.578 | 0.639 | 0.647 | 0.591 | 0.502 | 0.848 | 0.833 | 0.898 | 0.829 | 0.929 | 1.01 | 0.759 | 1.02 | 0.748 | 0.772 | 0.655 | 0.393 | 0.781 | 0.604 | 0.6
NCI-H441 | 0.301 | 0.288 | 0.269 | 0.268 | 0.261 | 0.48 | 0.415 | 0.48 | 0.507 | 0.462 | 1.24 | 0.917 | 1.03 | 0.947 | 0.862 | 0.271 | 0.274 | 0.274 | 0.275 | 0.255
LCLC-103H | 0.503 | 0.51 | 0.5 | 0.467 | 0.494 | 0.737 | 0.682 | 0.691 | 0.738 | 0.673 | 0.849 | 0.687 | 0.818 | 0.768 | 0.817 | 0.439 | 0.539 | 0.506 | 0.461 | 0.457
LCLC-97TM1 | 0.171 | 0.178 | 0.211 | 0.175 | 0.145 | 0.186 | 0.185 | 0.209 | 0.17 | 0.235 | 0.908 | 0.885 | 0.862 | 0.901 | 1.03 | 0.169 | 0.218 | 0.19 | 0.158 | 0.158
NCI-H1355 | 1.05 | 1.16 | 0.987 | 1.03 | 0.971 | 0.445 | 0.452 | 0.414 | 0.433 | 0.315 | 1.08 | 1.01 | 0.977 | 0.951 | 0.883 | 1.11 | 1.02 | 1.1 | 1.03 | 1.09
HOP-62 | 0.298 | 0.303 | 0.348 | 0.352 | 0.339 | 0.438 | 0.369 | 0.382 | 0.343 | 0.338 | 1.07 | 0.981 | 1.22 | 1.08 | 1.14 | 0.244 | 0.267 | 0.317 | 0.315 | 0.331
NCI-H2085 | 0.87 | 0.934 | 0.855 | 0.892 | 1 | 0.632 | 0.539 | 0.617 | 0.52 | 0.487 | 1.2 | 0.793 | 0.894 | 0.924 | 1.01 | 1.03 | 0.88 | 0.923 | 0.941 | 0.867
SW 900 |  | 0.49 | 0.444 | 0.464 | 0.489 | 0.69 | 0.765 | 0.7 | 0.774 | 1 | 0.78 |  | 0.806 | 0.698 | 0.659 | 0.508 | 0.423 | 0.505 | 0.485 | 0.468
